pIC50: −log10 of the molar value.
Tests used:
[1] = biological target: T1, Tyrosine-protein phosphatase non-receptor type 22 (Homo sapiens, UniProt Q9Y2R2); test: Inhibition of His-tagged LYP (unknown origin) expressed in Escherichia coli BL21 cells using para-nitrophenyl phosphate as substrate incubated for 5 to 10 mins by microplate reader based spectrophotometric analysis
T1 sequence (Q9Y2R2 whole entry): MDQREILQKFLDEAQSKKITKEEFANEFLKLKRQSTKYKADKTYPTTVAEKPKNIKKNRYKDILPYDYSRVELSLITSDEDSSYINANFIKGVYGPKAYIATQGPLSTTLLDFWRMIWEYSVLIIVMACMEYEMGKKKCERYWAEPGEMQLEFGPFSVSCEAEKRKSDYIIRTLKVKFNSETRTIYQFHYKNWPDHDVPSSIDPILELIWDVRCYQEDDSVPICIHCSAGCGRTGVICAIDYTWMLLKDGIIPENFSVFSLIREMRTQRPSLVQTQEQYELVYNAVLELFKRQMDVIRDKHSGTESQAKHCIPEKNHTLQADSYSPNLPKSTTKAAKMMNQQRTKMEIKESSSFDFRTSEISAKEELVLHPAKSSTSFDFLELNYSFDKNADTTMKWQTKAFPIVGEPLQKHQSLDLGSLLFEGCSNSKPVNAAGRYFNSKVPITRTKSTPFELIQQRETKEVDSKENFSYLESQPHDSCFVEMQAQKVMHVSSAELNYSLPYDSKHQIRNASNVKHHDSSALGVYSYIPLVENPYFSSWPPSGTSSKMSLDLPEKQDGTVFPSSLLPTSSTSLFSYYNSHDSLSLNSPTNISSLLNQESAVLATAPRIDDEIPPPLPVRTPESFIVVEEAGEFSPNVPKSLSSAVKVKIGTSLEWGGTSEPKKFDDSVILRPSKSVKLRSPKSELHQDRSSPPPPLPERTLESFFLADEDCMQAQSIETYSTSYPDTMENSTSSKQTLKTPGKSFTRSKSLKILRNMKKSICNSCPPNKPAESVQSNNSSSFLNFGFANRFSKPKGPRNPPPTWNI

[2] = biological target: T2, Receptor-type tyrosine-protein phosphatase C (Homo sapiens, UniProt P08575); test: Inhibition of His-tagged CD45 (unknown origin) expressed in Escherichia coli BL21 cells using para-nitrophenyl phosphate as substrate incubated for 5 to 10 mins by microplate reader based spectrophotometric analysis
T2 sequence (P08575 whole entry): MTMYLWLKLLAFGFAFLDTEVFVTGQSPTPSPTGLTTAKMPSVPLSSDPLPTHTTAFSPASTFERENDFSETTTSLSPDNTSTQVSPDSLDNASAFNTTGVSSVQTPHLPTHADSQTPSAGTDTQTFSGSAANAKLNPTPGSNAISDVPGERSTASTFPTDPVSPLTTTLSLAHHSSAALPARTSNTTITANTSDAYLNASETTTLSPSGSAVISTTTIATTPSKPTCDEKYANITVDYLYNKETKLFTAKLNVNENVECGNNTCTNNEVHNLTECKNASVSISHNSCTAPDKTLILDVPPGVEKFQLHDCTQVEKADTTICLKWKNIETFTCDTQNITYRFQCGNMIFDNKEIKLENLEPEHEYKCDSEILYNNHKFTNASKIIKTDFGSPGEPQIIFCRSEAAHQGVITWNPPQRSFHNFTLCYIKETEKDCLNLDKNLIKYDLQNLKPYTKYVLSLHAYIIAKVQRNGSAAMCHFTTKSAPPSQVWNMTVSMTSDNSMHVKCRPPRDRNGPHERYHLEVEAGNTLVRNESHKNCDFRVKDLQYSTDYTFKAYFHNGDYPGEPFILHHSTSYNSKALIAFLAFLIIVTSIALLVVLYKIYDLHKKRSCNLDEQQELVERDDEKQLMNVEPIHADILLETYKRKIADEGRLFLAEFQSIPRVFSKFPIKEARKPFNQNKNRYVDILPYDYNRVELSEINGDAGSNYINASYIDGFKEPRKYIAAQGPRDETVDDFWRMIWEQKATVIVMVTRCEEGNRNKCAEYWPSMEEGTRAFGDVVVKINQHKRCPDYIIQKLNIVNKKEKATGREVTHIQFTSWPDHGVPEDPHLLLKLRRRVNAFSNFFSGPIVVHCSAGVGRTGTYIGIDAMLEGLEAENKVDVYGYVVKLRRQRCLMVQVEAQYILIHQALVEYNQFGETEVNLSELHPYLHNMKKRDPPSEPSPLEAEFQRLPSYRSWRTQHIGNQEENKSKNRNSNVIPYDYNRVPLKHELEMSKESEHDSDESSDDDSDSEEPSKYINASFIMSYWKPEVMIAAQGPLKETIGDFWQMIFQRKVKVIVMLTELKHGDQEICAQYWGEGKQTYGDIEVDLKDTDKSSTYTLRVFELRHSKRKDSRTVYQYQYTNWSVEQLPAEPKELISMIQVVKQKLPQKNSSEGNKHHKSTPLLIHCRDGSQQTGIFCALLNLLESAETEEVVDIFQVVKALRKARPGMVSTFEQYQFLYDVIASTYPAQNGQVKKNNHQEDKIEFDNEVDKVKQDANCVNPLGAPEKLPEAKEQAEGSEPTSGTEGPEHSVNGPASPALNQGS

[3] = biological target: Receptor-type tyrosine-protein phosphatase F (Homo sapiens, UniProt P10586); test: Inhibition of His-tagged LAR (unknown origin) expressed in Escherichia coli BL21 cells using para-nitrophenyl phosphate as substrate incubated for 5 to 10 mins by microplate reader based spectrophotometric analysis
Sequence of Receptor-type tyrosine-protein phosphatase F (P10586 whole entry): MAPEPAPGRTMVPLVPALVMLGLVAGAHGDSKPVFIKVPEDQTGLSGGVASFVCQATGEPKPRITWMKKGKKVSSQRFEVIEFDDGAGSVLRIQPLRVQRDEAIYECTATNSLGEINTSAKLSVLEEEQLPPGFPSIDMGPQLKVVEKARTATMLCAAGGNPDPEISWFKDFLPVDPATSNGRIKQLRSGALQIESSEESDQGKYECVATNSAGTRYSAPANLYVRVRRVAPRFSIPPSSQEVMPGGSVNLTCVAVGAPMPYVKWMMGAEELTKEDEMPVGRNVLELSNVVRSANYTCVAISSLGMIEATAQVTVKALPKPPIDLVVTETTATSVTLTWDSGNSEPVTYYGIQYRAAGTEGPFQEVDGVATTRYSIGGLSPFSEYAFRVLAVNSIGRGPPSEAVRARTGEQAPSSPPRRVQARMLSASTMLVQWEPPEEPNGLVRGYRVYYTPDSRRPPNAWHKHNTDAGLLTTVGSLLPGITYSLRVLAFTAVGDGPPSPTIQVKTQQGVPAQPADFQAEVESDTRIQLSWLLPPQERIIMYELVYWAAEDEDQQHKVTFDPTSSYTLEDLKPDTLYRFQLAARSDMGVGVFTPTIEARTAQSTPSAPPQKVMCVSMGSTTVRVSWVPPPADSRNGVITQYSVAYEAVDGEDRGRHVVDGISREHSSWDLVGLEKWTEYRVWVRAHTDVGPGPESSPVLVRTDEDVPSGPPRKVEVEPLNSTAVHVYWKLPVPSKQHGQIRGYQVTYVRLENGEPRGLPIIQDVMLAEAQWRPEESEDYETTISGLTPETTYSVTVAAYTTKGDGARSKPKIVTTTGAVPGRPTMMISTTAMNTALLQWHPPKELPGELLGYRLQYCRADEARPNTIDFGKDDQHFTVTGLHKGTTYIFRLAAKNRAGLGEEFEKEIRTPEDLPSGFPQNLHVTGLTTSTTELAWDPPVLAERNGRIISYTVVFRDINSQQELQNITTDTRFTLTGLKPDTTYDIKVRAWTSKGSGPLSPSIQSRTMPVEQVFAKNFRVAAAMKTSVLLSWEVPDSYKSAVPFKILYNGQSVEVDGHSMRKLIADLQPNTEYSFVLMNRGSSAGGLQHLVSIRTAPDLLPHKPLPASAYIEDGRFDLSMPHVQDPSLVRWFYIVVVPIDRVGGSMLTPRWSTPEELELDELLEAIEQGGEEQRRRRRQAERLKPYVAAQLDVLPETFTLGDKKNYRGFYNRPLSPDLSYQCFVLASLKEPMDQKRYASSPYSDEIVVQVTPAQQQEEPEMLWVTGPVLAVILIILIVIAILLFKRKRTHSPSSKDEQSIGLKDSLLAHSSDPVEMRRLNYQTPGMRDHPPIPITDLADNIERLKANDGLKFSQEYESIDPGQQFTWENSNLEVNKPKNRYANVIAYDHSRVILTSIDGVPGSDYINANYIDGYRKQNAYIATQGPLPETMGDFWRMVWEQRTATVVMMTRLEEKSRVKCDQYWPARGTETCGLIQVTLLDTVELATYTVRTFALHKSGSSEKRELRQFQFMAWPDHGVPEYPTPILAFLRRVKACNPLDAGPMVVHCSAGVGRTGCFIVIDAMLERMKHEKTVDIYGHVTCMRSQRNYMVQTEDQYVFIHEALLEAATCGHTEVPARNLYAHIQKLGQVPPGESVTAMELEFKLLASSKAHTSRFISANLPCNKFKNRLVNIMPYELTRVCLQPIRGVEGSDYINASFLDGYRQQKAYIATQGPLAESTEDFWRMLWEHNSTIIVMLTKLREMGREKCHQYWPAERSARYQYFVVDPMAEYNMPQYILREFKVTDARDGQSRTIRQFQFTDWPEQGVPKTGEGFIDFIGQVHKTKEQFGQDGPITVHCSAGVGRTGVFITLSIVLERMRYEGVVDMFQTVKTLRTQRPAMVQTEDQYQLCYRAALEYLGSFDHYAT

[4] = biological target: T3, Dual specificity protein phosphatase CDC14A (Homo sapiens, UniProt Q9UNH5); test: Inhibition of His-tagged CDC14A (unknown origin) expressed in Escherichia coli BL21 cells using para-nitrophenyl phosphate as substrate incubated for 5 to 10 mins by microplate reader based spectrophotometric analysis
T3 sequence (Q9UNH5 whole entry): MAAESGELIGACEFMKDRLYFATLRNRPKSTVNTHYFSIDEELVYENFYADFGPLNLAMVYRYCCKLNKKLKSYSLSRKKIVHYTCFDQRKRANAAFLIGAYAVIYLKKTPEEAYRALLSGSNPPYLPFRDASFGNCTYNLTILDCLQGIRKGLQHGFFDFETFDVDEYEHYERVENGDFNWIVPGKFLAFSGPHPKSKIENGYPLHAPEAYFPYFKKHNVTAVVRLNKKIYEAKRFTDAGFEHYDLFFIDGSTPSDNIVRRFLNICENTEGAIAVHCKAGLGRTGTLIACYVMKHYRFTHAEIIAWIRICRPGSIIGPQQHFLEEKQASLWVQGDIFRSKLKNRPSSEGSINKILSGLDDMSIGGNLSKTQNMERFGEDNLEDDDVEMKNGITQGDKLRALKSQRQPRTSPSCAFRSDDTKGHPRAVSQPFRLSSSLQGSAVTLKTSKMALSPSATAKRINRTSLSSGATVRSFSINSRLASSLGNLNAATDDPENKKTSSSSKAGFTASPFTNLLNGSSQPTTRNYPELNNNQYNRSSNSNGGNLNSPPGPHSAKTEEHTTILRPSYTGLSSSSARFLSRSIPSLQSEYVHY

| SMILES | pIC50 [1] | pIC50 [2] | pIC50 [3] | pIC50 [4] |
| --- | --- | --- | --- | --- |
| O=C(Nc1nc2ccc([N+](=O)[O-])cc2s1)C(c1ccccc1)S(=O)(=O)O (centres undefined) | < 4.00 | < 4.00 | < 4.00 | < 4.00 |
| Cc1c(Br)cc(NC(=O)C(c2ccccc2)S(=O)(=O)O)cc1Br (centres undefined) | < 3.70 | < 3.70 | < 3.70 | < 3.70 |
| O=C(Nc1cc(C(F)(F)F)cc(C(F)(F)F)c1)C(c1ccccc1)S(=O)(=O)O (centres undefined) | < 3.70 | < 3.70 | < 3.70 | < 3.70 |
| O=C(Nc1ccc(OCc2ccccc2)c(Cl)c1)C(c1ccccc1)S(=O)(=O)O (centres undefined) |  | < 3.70 | < 3.70 | < 3.70 |
| O=C(Nc1ccc(-n2ccnc2)cc1)C(c1ccccc1)S(=O)(=O)O (centres undefined) | < 4.00 | < 4.00 | < 4.00 | < 4.00 |

— ChEMBL document CHEMBL4715770, “Inhibition of Low Molecular Weight Protein Tyrosine Phosphatase by an Induced-Fit Mechanism” (J Med Chem, 2016)
